Data on 2 compounds can be found in EP3594336A1, “TREATMENT OF DOWN SYNDROME” (Université de Strasbourg, priority 2018, dated 2020).

One data set concerns DYRK1A. The settings on record: treatment with EGCG, as reported previously; cited from earlier work.
In data set [1] the test system is yeast cells overexpressing Cys4. Kind of data set: Drug screening in yeast: suppression of methionine auxotrophy (halo of restored growth around filter). It is filed as cell-based, Saccharomyces cerevisiae. Conditions: same plate assay; high concentrations = close to the filter. On the procedure: As an example, for the drug screening, yeast cells transformed with p424-GPD and p426-GPD plasmids containing yeast CBS (CYS4) coding sequence were grown in uracil- and tryptophan-free minimal liquid medium (SD-Ura/Trp) overnight at 29°C. The following day, cells were diluted to OD600∼0.2 in fresh medium and grown for 4 hours to reach exponential phase. Then three hundred and fifty microliters of exponentially growing yeast cells overexpressing CYS4, adjusted to an OD600 of 0.5, were spread homogeneously with sterile glass beads (a mix of ∼1.5 and 3 mm diameter) on a square Petri dish (12 cm × 12cm) containing uracil-, tryptophan- and methionine-free minimal agar-based solid medium (SD-UrarTrp/Met). In addition, to get a degree of methionine auxotrophy sufficient to allow an efficient screening, the screening medium was supplemented with serine (2% (w/v)), which is one of CYS4/CBS substrates. Sterile filters (Thermo Fisher similar to those used for antibiograms) were placed on the agar surface, and 2 µl of individual compound from the various chemical libraries were applied to each filter. […]
According to the present invention, it was decided to create a yeast model in which the phenotypical consequences of CBS overexpression may be easily and conveniently monitored in order to get a potential in cellulo high throughput drug screening procedure. […]

Turning to `O=C(O[C@@H]1Cc2c(O)cc(O)cc2O[C@@H]1c1cc(O)c(O)c(O)c1)c1cc(O)c(O)c(O)c1` [epigallocatechin-3-gallate], the “cognitive aspects found altered in people with DS” value with DYRK1A is recorded as “can restore some cognitive aspects found altered in people with DS but the gain was limited”.

As to `CCN(CC)C(=S)SSC(=S)N(CC)CC` [DSF, Disulfiram], the “toxicity on CYS4-overexpressing cells” value in data set [1] is recorded as “toxic at high concentrations”.
